Molecule `CC(O)CNc1nc(C2C(=O)Nc3ccc(Br)cc32)c2cn(C)nc2n1` (centres undefined) yielded a melting point of 298 to 301 °C. As to `Cc1cc([N+](=O)[O-])c2c(c1Cl)CC(CO)O2` (centres undefined), the melting point lay in the range of 112 to 115 °C.

Take `Cc1nc2c(O)c(CCC(=O)c3cccs3)c(C(=O)N(C)C)cc2n1C`: the melting point fell in the range of 233 to 235 °C. Turning to `NC(=O)c1cc(-c2ccccc2)c(=O)n2c1-c1ccccc1C2`, the melting point lay within 294 to 296 °C. With `Cc1[nH]c2ccccc2c1/C=C/C(=O)c1ccncc1`, the melting point fell in the range of 268 to 272 °C. Then `COc1ccc(NC(=O)c2ccccc2)cc1Nc1ccccc1`, with 209 to 210 °C; and `OC1Cc2ccccc2Sc2cc(F)c(Cl)cc21` (centres undefined), with 69 to 71 °C. Molecule `N#Cc1ccc2cc(S)ccc2c1` registered a melting point of 113 to 115 °C. `CC(=O)Nc1nc2ccc(O)cc2n1S(=O)(=O)N(C)C` displayed a melting point of 175 to 176 °C. To `COc1cccc(CNc2nccc(-c3cc(N4CCN(CCCN5CCC5)CC4)c4cc(OC)ccc4c3)n2)c1` belongs 122 to 130 °C; to `COc1cc(CCCN2CCc3cc(OC)c(OC)cc3C2)ccc1NC(=O)c1cccc2c(=O)c3c(OC)ccc(OC)c3[nH]c12`, 140 °C. As to `O=[N+]([O-])c1cc(C(F)F)cc2nc(C(F)(F)F)[nH]c12`, the melting point lay within 132 to 134 °C. On to `CC1(C)CN(C2CC3(C)C(CCC4C5CCC(C#N)C5(C)CCC43)CC2O)CCO1` (centres undefined), for which the melting point lay in the range of 170 to 173 °C. The molecule `CCN(CC)CCOc1cccc2c1c1ccccc1n2Cc1ccccc1` showed a melting point of 79 to 80.5 °C.

`CCOC(=O)c1ccc(CN2CC[C@H](NC(=O)OC(C)(C)C)C2=O)c(C(F)(F)F)c1`: the melting point fell in the range of 93 to 95 °C.

Turning to `CCCCOc1cc(C(=O)NCC#N)cc(Cl)n1`, the melting point is 72 to 73 °C. In turn, `CC(C)(C)[Si](C)(C)Oc1ccc2c(c1)oc(=O)c1c3ccc(O[Si](C)(C)C(C)(C)C)cc3oc21` came in with a melting point of 118 to 119 °C.

The molecule `CC1=NC(=Cc2ccc(C#N)cc2)C(=O)O1` showed a melting point of 192 to 193 °C. As for `Cc1cn(C2CC(O)C(CO)(N=[N+]=[N-])O2)c(=O)[nH]c1=O` (centres undefined), the melting point lay within 175 to 176 °C.

The molecule `Cc1nc(CCOc2ccc([N+](=O)[O-])cc2)c(C)o1` returned a melting point of 97 to 98 °C. Then `CCC[C@H]1C(=O)N(S(=O)(=O)c2cccc3ccccc23)[C@H]2CCN(S(C)(=O)=O)[C@H]12` (relative stereo), with 185 to 187 °C; and `CCCc1c(OCCCCC#N)ccc(C(=O)c2ccccc2OC)c1O`, with 85 to 86.5 °C; and `CC(=O)OC(n1cc(C#N)c(-c2cccc(Cl)c2Cl)c1)C(Cl)(Cl)Cl` (centres undefined), with 111 to 113 °C. `O=S(=O)(NCCc1cccnc1)c1ccc(Cl)cc1` returned a melting point of 143 to 145 °C. `Cc1ccc(S(=O)(=O)O[C@@H]2C[C@@H](C(=O)NC(C)(C)C)N(C(=O)OC(C)(C)C)C2)cc1` came in with a melting point of 125 to 127 °C. To `CCCCOc1ccc(C(=O)Nc2ccc3cc(C(C)N4CCCC4)cnc3c2C)cc1` (centres undefined) belongs 136 to 139 °C. Then `COc1ccc(N2CCN(c3ccc(N)cc3)CC2)cc1`, with 192 °C. With `Clc1nc2cc(Br)c(Br)c(Br)c2[nH]1`, the melting point was 263 to 266 °C. The molecule `C[C@H]1C(=O)OCN1C(=O)OCc1ccccc1` gave a melting point of 89 to 91 °C. On to `O=c1ccn(-c2cccc(C(F)(F)F)c2)nc1-c1ccnn1-c1ccccc1Cl`, for which the melting point is 139 to 140 °C.

As for `CSCC[C@H](N)C(=O)NC(=O)C(CSC(C)=O)Cc1ccccc1` (some centres undefined), the melting point was 119 to 121 °C.

In turn, `C=C[C@@]12CCC[C@@H](C#N)[C@@H]1C(=O)CC2` yielded a melting point of 41 to 42 °C.

As for `CC1(Cn2c(=O)oc3ccccc32)Cn2cc([N+](=O)[O-])nc2O1` (centres undefined), the melting point lay within 223 to 224 °C. Take `CC#CCOc1ccc(S(=O)(=O)N(C)C(C(=O)NO)c2ccc(OCCCNC(=O)OCc3ccccc3)cc2)cc1` (centres undefined): the melting point fell in the range of 48 to 50 °C. Molecule `Cc1c(F)c(F)c(F)c2c1c(=O)c(C(=O)O)cn2-c1ccc(F)cc1F` displayed a melting point of 221 to 222 °C. Then `C=CCOc1ccc(C(=O)C=Cc2cc(OC)cc(OC)c2)cc1`, with 88.5 to 90 °C; and `CC(c1cccc(C2(c3ccccc3)OCCO2)c1)c1nc(N)no1` (centres undefined), with 112 to 114 °C; and `Cc1cc(NCCO)c2[nH]ncc2n1`, with 213 to 216 °C. For the molecule `Cc1cc(C2=NN=C(C(=O)O)Cc3cc4c(cc32)OCO4)ccc1[N+](=O)[O-]`, the melting point lay in the range of 185 to 186 °C. As to `CCC1CCc2cc(CC(=O)O)ccc2O1` (centres undefined), the melting point is 88 to 90 °C. `OC1CSC(Oc2cccnc2-c2cccs2)C(O)C1O` (centres undefined) came in with a melting point of 130 °C. To `CCCC(=O)OCC(=O)C1(OC(=O)CCC)CCC2C3CC(C)C4=CC(=O)CCC4(C)C3C(O)CC21C` (centres undefined) belongs 103 °C; to `O=c1c2ccccc2ncn1NC(=S)Nc1ccc(Br)cc1`, 189 to 190 °C. To `Cc1cccc(NC(=O)NCC(=O)N(CC(=O)OC(C)(C)C)c2cccc(Cl)c2)c1` belongs 110 °C; to `CCOC(=O)c1cc([N+](=O)[O-])ccc1O`, 97 °C. Then `COc1cc(OC)c(-c2csc(NC(=O)c3cc4ccccc4[nH]3)n2)c(OC)n1`, with 285 to 287 °C; and `N#Cc1cccc(C(=O)Nc2ccccc2N)c1`, with 197 to 200 °C; and `O=C(O)c1cc(Cl)c(Cl)c(S(=O)(=O)Cl)c1`, with 203 °C. Regarding `C[Si](C)(CCCc1nnc(N)nc1O)c1ccccc1`, the melting point lay within 250 to 252 °C. With `CS(=O)(=O)N(N)C(=O)c1cc([N+](=O)[O-])c(C(F)(F)F)cc1N`, the melting point fell in the range of 221 to 227 °C.

Take `Fc1ccc(N2CCC(N3CCN(c4cccc5cccnc45)CC3)CC2)c2ncccc12`: the melting point came to 224 °C. In turn, `Cc1cccc(NCC(=O)Nc2ccc(S(N)(=O)=O)cc2Cl)c1` returned a melting point of 185 to 189 °C. For the molecule `COc1cccc(N2CCN(Cc3ccccc3C(c3ccc(O)cc3)c3ccc(O)cc3)CC2)c1`, the melting point lay within 128 to 130 °C. Regarding `O=C(O)c1cc(-c2ccc(Br)cc2)c(=O)n(Cc2ccc(Cl)cc2Cl)c1`, the melting point fell in the range of 137 to 139 °C. To `CCOC(=O)C(C#N)=NOS(C)(=O)=O` belongs 79 to 83 °C; to `CC(C)OC(=O)NNc1n[nH]c2cc(Cl)ccc12`, 184 to 185 °C. As for `COC(=O)c1nc2nccc(S)n2n1`, the melting point came out at 206 °C. `O=[N+]([O-])c1ccc(Oc2ccc(C(F)(F)F)cn2)cc1NCP(=O)(O)O` showed a melting point of 94 °C. To `C[C@@H]1C[C@](C)(O)[C@H](C)N1c1ccc(C#N)c(C(F)(F)F)c1` belongs 115 to 117 °C; to `CC(C)Oc1cc(CCCOc2ncccc2CC(=O)O)n(Cc2ccc(Cl)cc2OC(C)C)n1`, 82 to 84 °C; to `COc1ccc(C(=O)n2cccc2Br)c(OC)c1`, 81 to 82 °C. Then `Cc1ccc(S(=O)(=O)N2CCC[C@H]2C(=O)N[C@@H](Cc2ccc(OCC(=O)NC(C)(C)C)cc2)C(=O)O)cc1`, with 88 to 89 °C; and `CC(C)(C)CC(C)(C)c1ccc(N)c([N+](=O)[O-])c1`, with 104 to 107 °C; and `CC(C)(C)C(NC(=O)c1ccc(Br)cc1)NC(=NC#N)Nc1cccnc1` (centres undefined), with 180 to 181 °C. In turn, `C=CCOC(=O)NC12CC3CC(CC(C3)C1)C2` came in with a melting point of 56 to 58 °C. The molecule `Oc1cccc2ccc3ccccc3c12` yielded a melting point of 114 to 116 °C.

`CCC1(CO)Cc2cc(OCC(=O)O)c(Cl)c(Cl)c2C1=O` (centres undefined) gave a melting point of 155 to 157 °C. To `COc1cc(C)cc(OCCCSCCC(=O)O)c1` belongs 39 to 42 °C; to `CN(c1ccc(O)cc1)c1cc2ccc(Cl)cc2c(O)n1`, 266 °C; to `COc1c(Nc2ncc(Cl)c(N[C@@H]3CCCC[C@H]3NS(C)(=O)=O)n2)ccc2c1CCCC(NCCO)C2` (some centres undefined), 92 to 94 °C. Then `CCc1cc(C(=O)c2ccccc2Cl)c(-n2c(C)nnc2CNC(=O)Nc2cccc(CC(=O)OC(C)(C)C)c2)s1`, with 178 to 179 °C.

Turning to `N#Cc1c(N2CCN(C(=O)c3cccs3)CC2)c2cscc2n(CC(=O)c2ccccc2)c1=O`, the melting point amounted to 308 °C. Then `Cc1csc(-c2cccnc2)n1`, with 42 to 43 °C; and `COc1cc(Nc2c(C#N)cnc3cc(/C=C/C(=O)O)ccc23)c(Cl)cc1Cl`, with 237 to 240 °C; and `CC(C(=O)O)c1ccccc1OS(C)(=O)=O` (centres undefined), with 94 to 96 °C. To `Nc1n[nH]c2nc(N3CCOCC3)cc(-c3ccccc3)c12` belongs 178 to 180 °C. On to `CCOC(=O)c1cc(C)c(OCCCc2cc(C)no2)c(C)c1`, for which the melting point is 49 to 50 °C.

On to `CCCNC(=O)c1ccc(C)c(-c2nc(NCCN(C)C(=O)OC(C)(C)C)nc3c2ccc(=O)n3-c2c(F)cccc2F)c1`, for which the melting point was in the range of 115 to 118 °C. To `CC(O)Cn1cncn1` (centres undefined) belongs 110 to 112 °C; to `CCCC(CCC)n1c(CC)nc2c1C(=O)N(C)CN2c1ccc(Cl)cc1Cl`, 117 to 118 °C. Regarding `CN1CCN(C(=O)OC2C3=C(SCCS3)C(=O)N2c2ccc3cccnc3n2)CC1` (centres undefined), the melting point was 255 °C. Then `Oc1ccc(Oc2ncc(Cl)cc2Cl)cc1`, with 122 to 124 °C; and `CC(c1ccccc1)C(Oc1c(Br)cc(-c2c3ccccc3c(Br)c3sc4ccccc4c23)cc1Br)C(=O)O` (centres undefined), with 115 to 120 °C; and `COc1ccc(CC(C)NC(O)Cc2cc3ccccc3o2)cc1` (centres undefined), with 75 to 85 °C. In turn, `N#CCOc1ccc2cc(-c3ccc(-c4ccccc4)[nH]3)ccc2c1` gave a melting point of 142 °C. `Cc1c(-c2ccccc2)sc2ccc(Cl)cc12` yielded a melting point of 108 to 110 °C. To `C=Cc1[nH]c2cccc3c2c1CC1C3CC(NC(=O)N(CC)CC)CN1C` (centres undefined) belongs 145 to 150 °C; to `CCC(=O)Oc1ccc2c(=O)c(C(=O)CC)c(CC)oc2c1`, 84 °C; to `CCCCOC1c2ccccc2C(=O)N(CC(C)C)C1(/C=C/C(N)=O)CNC(=O)OC(C)(C)C` (centres undefined), 149 to 150 °C.

Source of the values: a melting point compilation (Tetko et al.; mined from patent text by program, amines drawn as free bases though some values may be those of a salt).
